Test results taken from US20240182465A1 (GENFLEET THERAPEUTICS (SHANGHAI) INC., priority 2021, published 2024).
Counter-ions that a name gives are not always drawn.

How the values were obtained:
HPK1 [1] = molecular target: T1, HPK1 (Homo sapiens, UniProt Q92918); experiment: HPK1 kinase activity assay (ADP-Glo); details: HPK1 Kinase activity IC50 (nM), 1 nM HPK1, 10 μM ATP, 0.1 μg/μL MBP
T1 sequence (Q92918 1-346 limits assumed): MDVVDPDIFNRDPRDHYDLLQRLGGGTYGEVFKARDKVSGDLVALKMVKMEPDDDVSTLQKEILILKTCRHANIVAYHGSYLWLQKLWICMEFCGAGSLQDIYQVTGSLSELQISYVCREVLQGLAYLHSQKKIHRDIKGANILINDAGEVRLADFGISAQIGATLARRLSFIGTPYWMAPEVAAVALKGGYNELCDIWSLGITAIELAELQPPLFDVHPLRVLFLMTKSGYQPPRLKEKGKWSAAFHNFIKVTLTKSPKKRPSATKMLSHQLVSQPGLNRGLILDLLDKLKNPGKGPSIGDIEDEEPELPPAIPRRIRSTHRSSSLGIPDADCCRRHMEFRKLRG
Experimental: Preparation of buffer: 1× reaction buffer (40 mM Tris-HCl, 20 mM MgCl2, 0.01% Brij35, 50 μM DTT, 0.1 mg/ml BSA) was prepared using sterile water, which was prepared and used on the day of the experiment.
Preparation of 1000× drug stock plate: a 1000× compound stock plate was prepared. […] The compound stock plate was sealed with a sealing film and stored in a −20° C. refrigerator for later use.
Compound preparation and dosing: the 1000× drug stock plate was taken and melted at room temperature in the dark. Then 5× drug intermediate plate was prepared using reaction buffer and mixed well. 2 μL was transferred from the 5× drug intermediate plate into a 384-well plate, and negative control well and positive control well (in which 2 μL reaction buffer containing 0.5% DMSO was added) were set. Each point was repeated twice.
Preparation and incubation of reaction mixture: HPK1 protein was diluted to a 2.5× working solution with reaction buffer. 4 μL 2.5×HPK1 protein was added to each well containing test compound and positive control well, and 4 μL of reaction buffer without HPK1 protein was added to the negative control well. The obtained mixture was centrifuged at 1000 rpm for 1 min and then incubated in a 20° C. incubator for 15 min. A 2.5× mixed working solution of MBP protein and ATP was prepared with reaction buffer at concentrations of 0.5 μg/μL and 50 PM, respectively. 4 μL of the mixed working solution of MBP and ATP was added to each well, centrifuged at 1000 rpm for 1 min, and then incubated in a 20° C. incubator for 90 min.
ADP-Glo detection and reading plate: 10 μl ADP-Glo was added to each well of the test plate. The resulting mixture was centrifuged at 1000 rpm for 1 min and incubated in a 20° C. incubator for 60 min. Then 10 μL of the final incubation solution was transferred from the test plate to a new 384-well plate. 10 μL of kinase detection reagent was added to each well, centrifuged at 400 g for 1 min, and incubated in a 20° C. incubator for 60 min. Chemiluminescent signals were read by a microplate reader.

HPK1 [2] = molecular target: HPK1 (Homo sapiens, UniProt Q92918); experiment: SLP76 phosphorylation assay (intracellular HPK1 inhibitory activity, p-SLP76 Ser376 sandwich ELISA); details: p-SLP76 IC50(nM), Jurkat, Clone E6-1 cells; 1 h compound pre-incubation, anti-CD3 beads stimulation 20 min; SLP76 phosphorylation at S376
Target sequence in this assay (Q92918 whole entry): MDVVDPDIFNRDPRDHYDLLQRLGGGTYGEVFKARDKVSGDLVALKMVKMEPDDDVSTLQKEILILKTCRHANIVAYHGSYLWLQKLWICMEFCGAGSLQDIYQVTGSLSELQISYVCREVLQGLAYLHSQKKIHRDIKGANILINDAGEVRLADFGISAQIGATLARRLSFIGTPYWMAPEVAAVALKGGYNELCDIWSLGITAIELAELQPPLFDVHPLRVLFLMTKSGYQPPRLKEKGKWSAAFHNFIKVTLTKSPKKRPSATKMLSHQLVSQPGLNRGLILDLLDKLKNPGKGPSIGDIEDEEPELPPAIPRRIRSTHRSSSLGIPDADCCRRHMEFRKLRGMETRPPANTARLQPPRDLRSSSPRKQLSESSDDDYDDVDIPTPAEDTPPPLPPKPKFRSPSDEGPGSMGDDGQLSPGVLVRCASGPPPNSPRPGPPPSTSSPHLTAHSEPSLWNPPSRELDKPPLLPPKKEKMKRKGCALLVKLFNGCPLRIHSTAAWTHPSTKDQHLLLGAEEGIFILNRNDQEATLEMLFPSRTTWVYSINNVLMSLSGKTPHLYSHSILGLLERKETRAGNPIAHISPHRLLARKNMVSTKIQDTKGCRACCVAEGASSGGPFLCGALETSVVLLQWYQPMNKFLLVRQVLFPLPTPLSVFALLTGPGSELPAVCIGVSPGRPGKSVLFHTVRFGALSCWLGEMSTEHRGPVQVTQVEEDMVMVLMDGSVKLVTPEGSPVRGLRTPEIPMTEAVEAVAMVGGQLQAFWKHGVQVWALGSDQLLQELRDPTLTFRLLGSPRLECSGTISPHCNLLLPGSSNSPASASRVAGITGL

IC50 (HPK1 [1]) [nM]	IC50 (HPK1 [2]) [nM]	Structure (SMILES)
0.64	318	Cc1cc(C(=O)N2CCc3cc(-c4cnc5[nH]cc(C)c5c4)cc([C@@H]4CCCN4)c3C2)ccn1 [Compound Z213, (S)-(6-(3-methyl-1H-pyrrolo[2,3-b]pyridin-5-yl)-8-(pyrrolidin-2-yl)-3,4-dihydroisoquinolin-2(1H)-yl) (2-methylpyridin-4-yl)methanone]
0.6	162	Cc1c[nH]c2ncc(-c3cc4c(c([C@@H]5CCCN5)c3)CN(c3ccncc3)CC4)cc12 [Compound Z291, (S)-6-(3-methyl-1H-pyrrolo[2,3-b]pyridin-5-yl)-2-(pyridin-4-yl)-8-(pyrrolidin-2-yl)-1,2,3,4-tetrahydroisoquinoline]
0.39	159	CC(=O)N1CCc2c(cc(-c3cnc4[nH]cc(C)c4c3)cc2[C@@H]2CCCN2)C1 [Compound Z139, (S)-1-(7-(3-methyl-1H-pyrrolo[2,3-b]pyridin-5-yl)-5-(pyrrolidin-2-yl)-3,4-dihydroisoquinolin-2(1H)-yl)ethan-1-one]
0.71	235	Nc1ncc(-c2cc3c(c([C@@H]4CCCN4)c2)COCC3)cc1-c1cn[nH]c1 (single isomer, unassigned) [Compound Z93-2]
0.45	196	Cc1cc(C(=O)N2CCc3cc(-c4cnc5[nH]cc(C)c5c4)cc([C@@H]4CCCN4)c3C2)n(C)n1 [Compound Z355, (S)-(1,3-dimethyl-1H-pyrazol-5-yl)(6-(3-methyl-1H-pyrrolo[2,3-b]pyridin-5-yl)-8-(pyrrolidin-2-yl)-3,4-dihydroisoquinolin-2(1H)-yl)methanone]
1.35	343	Cc1c[nH]c2ncc(-c3cc4c(c([C@@H]5CCCN5)c3)CN(C(=O)c3ccccc3)CC4)cc12 [Compound Z123]
3.76	909	Cc1ccc(-c2c[nH]c3ncc(-c4cc5c(c([C@@H]6CCCN6)c4)COCC5)cc23)cn1 [Compound Z212, (S)-3-(6-methylpyridin-3-yl)-5-(8-(pyrrolidin-2-yl)isochroman-6-yl)-1H-pyrrolo[2,3-b]pyridine]
1.41	417	Cc1c[nH]c2ncc(-c3cc4c(c([C@@H]5CCCN5)c3)CN(C(=O)c3cnn(C)c3)C4)cc12 [Compound Z368, (S)-(1-methyl-1H-pyrazol-4-yl)(6-(3-methyl-1H-pyrrolo[2,3-b]pyridin-5-yl)-4-(pyrrolidin-2-yl)isoindolin-2-yl)methanone hydrochloride]
0.38	471	Cc1nn(C)cc1C(=O)N1CCc2cc(-c3cnc4[nH]cc(C)c4c3)cc([C@@H]3CCCN3)c2C1 [Compound Z282, (S)-(1,3-dimethyl-1H-pyrazol-4-yl)(6-(3-methyl-1H-pyrrolo[2,3-b]pyridin-5-yl)-8-(pyrrolidin-2-yl)-3,4-dihydroisoquinolin-2(1H)-yl)methanone]
0.61	254	Cc1c[nH]c2ncc(-c3cc4c(c([C@@H]5CCCN5)c3)CCN(C(=O)C(C)(C)O)C4)cc12 [Compound Z301, (S)-2-hydroxy-2-methyl-1-(7-(3-methyl-11H-pyrrolo[2,3-b]pyridin-5-yl)-5-(pyrrolidin-2-yl)-3,4-dihydroisoquinolin-2(1H)-yl)propan-1-one]
0.47	88.4	Cc1c[nH]c2ncc(-c3cc4c(c([C@@H]5CCCN5)c3)CCN(C(=O)C3CCOCC3)C4)cc12 [Compound Z312, (S)-1-[7-(3-methyl-1H-pyrrolo[2,3-b]pyridin-5-yl)-5-[pyrrolidin-2-yl]-3,4-dihydroisoquinolin-2(1H)-yl](tetrahydro-2H-pyran-4-yl)methanone]
0.93	125	Cc1c[nH]c2ncc(-c3cc4c(c([C@@H]5CCCN5)c3)CCN(C(=O)C3CC3)C4)cc12 [Compound Z302, (S)-cyclopropyl (7-(3-methyl-1H-pyrrolo[2,3-b]pyridin-5-yl)-5-(pyrrolidin-2-yl)-3,4-dihydroisoquinolin-2(1H)-yl)methanone]
4.34	853	Cc1c[nH]c2ncc(-c3cc(C4CCCN4)c4cnccc4c3)cc12 (centres unmarked) [Compound Z3, 6-(3-methyl-1H-pyrrolo[2,3-b]pyridin-5-yl)-8-(pyrrolidin-2-yl)isoquinoline formate]
0.56	146	Cc1c[nH]c2ncc(-c3cc4c(c([C@@H]5CCCN5)c3)CCN(C(=O)CC3CCOCC3)C4)cc12 [Compound Z311, 1-[7-(3-methyl-1H-pyrrolo[2,3-b]pyridin-5-yl)-5-[(2S)-tetrahydro-1H-pyrrol-2-yl]-1,2,3,4-tetrahydroisoquinolin-2-yl]-2-(3,4,5,6-tetrahydro-2H-pyran-4-yl)ethan-1-one]
0.8	279	CCN1Cc2c(cc(-c3cnc4[nH]cc(C)c4c3)cc2[C@@H]2CCCN2)NC1=O [Compound Z256, (S)-3-ethyl-7-(3-methyl-1H-pyrrolo[2,3-b]pyridin-5-yl)-5-(pyrrolidin-2-yl)-3,4-dihydroquinazolin-2(1H)-one]
29.6	3810	CCN1Cc2c(cc(-c3cnc4[nH]cc(C)c4c3)cc2[C@@H]2CCCN2)C1=O [Compound Z236, (S)-2-ethyl-6-(3-methyl-1H-pyrrolo[2,3-b]pyridin-5-yl)-4-(pyrrolidin-2-yl)isoindolin-1-one]
0.32	113	COCC(=O)N1CCc2cc(-c3cnc4[nH]cc(C(C)C)c4c3)cc([C@@H]3CCCN3)c2C1 [Compound Z404]
0.35	122	Cc1c[nH]c2ncc(-c3cc4c(c([C@@H]5CCCN5)c3)CN(C(=O)[C@H]3CCOC3)CC4)cc12 [Compound Z219-2, (S)-(6-(3-methyl-1H-pyrrolo[2,3-b]pyridin-5-yl)-8-(pyrrolidin-2-yl)-3,4-dihydroisoquinolin-2(1H)-yl) ((S)-tetrahydrofuran-3-yl)methanone]
1.54	358	CC(=O)N1CCc2cc(-c3cnc4[nH]cc(C)c4c3)cc(C3COCCN3)c2C1 (centres unmarked) [Compound Z119]
0.78	210	Cc1ccc(C(=O)N2CCc3cc(-c4cnc5[nH]cc(C)c5c4)cc([C@@H]4CCCN4)c3C2)nc1 [Compound Z439, (S)-(6-(3-methyl-1H-pyrrolo[2,3-b]pyridin-5-yl)-8-(pyrrolidin-2-yl)-3,4-dihydroisoquinolin-2(1H)-yl) (5-methylpyridin-2-yl)methanone]
34.2	3760	Cc1c[nH]c2ncc(-c3cc4c(c(CN(C)C)c3)C(=O)N(C)CC4)cc12 [Compound Z186, 8-((dimethylamino)methyl)-2-methyl-6-(3-methyl-1H-pyrrolo[2,3-b]pyridin-5-yl)-3,4-dihydroisoquinolin-1(2H)-one]
0.44	162	Cc1cc(C(=O)N2CCc3c(cc(-c4cnc5[nH]cc(C)c5c4)cc3[C@@H]3CCCN3)C2)cc(C)n1 [Compound Z279, (S)-(2,6-dimethylpyridin-4-yl)(7-(3-methyl-1H-pyrrolo[2,3-b]pyridin-5-yl)-5-(pyrrolidin-2-yl)-3,4-dihydroisoquinolin-2(1H)-yl)methanone]
1.52	386	COc1cc(N2CCc3cc(-c4cnc5[nH]cc(C)c5c4)cc([C@@H]4CCCN4)c3C2)ccn1 [Compound Z344, (S)-2-(2-methoxypyridin-4-yl)-6-(3-methyl-1H-pyrrolo[2,3-b]pyridin-5-yl)-8-(pyrrolidin-2-yl)-1,2,3,4-tetrahydroisoquinoline]

Structure (SMILES)	IC50 (HPK1 [1]) [nM]	IC50 (HPK1 [2]) [nM]
Cc1c[nH]c2ncc(-c3cc4c(c([C@@H]5CCCN5)c3)CN(C(=O)c3cnn(C)c3)CC4)cc12 [Compound Z224, (S)-(1-methyl-1H-pyrazol-4-yl)(6-(3-methyl-1H-pyrrolo[2,3-b]pyridin-5-yl)-8-(pyrrolidin-2-yl)-3,4-dihydroisoquinolin-2(1H)-yl)methanone]	1.11	333
COCC(=O)N1Cc2cc(-c3cnc4[nH]cc(C)c4c3)cc([C@@H]3CCCN3)c2C1 [Compound Z261, (S)-2-methoxy-1-(6-(3-methyl-1H-pyrrolo[2,3-b]pyridin-5-yl)-4-(pyrrolidin-2-yl)isoindolin-2-yl)ethan-1-one hydrochloride]	2.63	842
Cc1c[nH]c2ncc(-c3cc4c(c([C@@H]5CCCN5)c3)CN(C(=O)N3CCC(F)(F)CC3)CC4)cc12 [Compound Z440, (S)-(4,4-difluoropiperidin-1-yl)(6-(3-methyl-1H-pyrrolo[2,3-b]pyridin-5-yl)-8(pyrrolidin-2-yl)-3,4-dihydroisoquinolin-2(1H)-yl)methanone]	0.37	142
Cc1[nH]c2ncc(-c3cc4c(c([C@@H]5CCCN5)c3)CN(C(=O)[C@](C)(O)C(F)(F)F)CC4)cc2c1C [Compound Z414, (S)-1-(6-(2,3-dimethyl-1H-pyrrolo[2,3-b]pyridin-5-yl)-8-((S)-pyrrolidin-2-yl)-3,4-dihydroisoquinolin-2(1H)-yl)-3,3,3-trifluoro-2-hydroxy-2-methylpropan-1-one]	20.6	2610
Cc1c[nH]c2ncc(-c3cc4c(c([C@@H]5CCCN5)c3)CCOC4)cc12 [Compound Z75-1]	1.7	475
